Assay results from patent US5025010A, “Benzothiazinone derivatives, and pharmaceuticals containing them” (Hoechst Aktiengesellschaft, priority 1987, dated 1991).
Structures can show the parent of a compound that is named as a salt.

Columns and labels:
[1] = system: isolated rabbit aorta; assay: isolated rabbit aorta: contraction of aorta rings depolarized with potassium chloride after pretreatment with the test substance; details: Oryctolagus cuniculus, concentration of 10^-6 M, KCl-depolarized aorta rings
Source text: Their calcium antagonistic or calcium agonistic action can be shown using the model of the isolated rabbit aorta. This entails aorta rings being depolarized with potassium chloride, whereupon they contract. Pretreatment with the test substance is followed by a diminution in contraction in the case of the compounds acting as calcium antagonists, but by an intensification of contraction in the case of compounds acting as calcium agonists. For example, the compound from Example 2 at a concentration of 10^-6 M results in a 32% diminution in contraction. The compound from Example 3 at a concentration of 10^-6 M results in a 93% intensification of contraction.

[2] = molecular target: calcium channels; assay: displacement of tritium-labeled nitrendipine from membrane preparations containing isolated calcium channels; type: binding
Experimental: Their action on the calcium channels can be shown using the biochemical test model of the displacement of tritium-labeled nitrendipine. In this test, membrane preparations which contain isolated calcium channels are loaded with the labeled substance. After incubation with the test substance, the radioactivity released and the radioactivity remaining on the membrane are determined. The IC50 values shown by the compounds of the formula I, according to the invention, in this model are from 10^-6 molar to 10^-10 molar.

Compound	activation at 1 µM ([1]; calcium agonistic action, read-out: intensification of contraction) [%]	IC50 [2] [nM]	inhibition at 1 µM ([1]; calcium antagonistic action, read-out: diminution in contraction) [%]
COc1cc(CCN2CCN(C/C=C\COc3ccccc3[C@@]3(C(C)C)Sc4ccccc4N(C)C3=O)CC2)cc(OC)c1OC [Example 3, (R)-2-isopropyl-4-methyl-2-[2-[4-[4-(3,4,5-trimethoxyphenethyl)-1-piperazinyl]-2-cis-buten-1-yloxy]phenyl]-2H-1,4-benzothiazin-3(4H)-one dihydrochloride]	93		
COc1cc(CCN2CCN(CC#CCOc3ccccc3[C@@]3(C(C)C)Sc4ccccc4N(C)C3=O)CC2)cc(OC)c1OC [Example 2, (R)-2-Isopropyl-4-methyl-2-[2-[4-[4-(3,4,5-trimethoxyphenethyl)-1-piperazinyl]-2-butyn-1 yloxy]phenyl]-2H-1,4-benzothiazin-3(4H)-one dihydrochloride]		0.12	32
